From article PMC4485422 (Neuron, 2015) come the findings set out here.

A word on the IC50: it is the concentration that gives 50% inhibition. A low value points to greater potency.

The target of the test is sepiapterin reductase (hSPR) (Homo sapiens, UniProt P35270). Kind of test: cell-free TR-FRET binding assay. On the technique in general: In TR-FRET formats the signal depends on donor and acceptor labels being close together.
sepiapterin reductase (hSPR), sequence (P35270 whole entry): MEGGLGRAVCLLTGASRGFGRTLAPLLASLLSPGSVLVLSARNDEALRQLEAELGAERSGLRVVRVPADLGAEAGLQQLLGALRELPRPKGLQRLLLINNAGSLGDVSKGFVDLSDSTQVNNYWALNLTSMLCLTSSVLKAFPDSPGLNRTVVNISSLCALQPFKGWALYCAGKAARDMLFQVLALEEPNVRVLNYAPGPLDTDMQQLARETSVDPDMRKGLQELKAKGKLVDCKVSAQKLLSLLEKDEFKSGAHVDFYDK

`CC(=O)NCCc1c[nH]c2ccc(O)cc12` [NAS, N-acetylserotonin]: the IC50 was 1.9 µM.
